In series [1] the test system is mouse. Briefly: Analgesia, writhing test, mouse s.c. It is filed as in vivo. Conditions: for ED50: sc, mouse s.c. The text has this:
(§1) The compounds of the present invention, that is, those embraced by formula I above and their non-toxic, pharmacologically acceptable acid addition salts, have useful pharmacodynamic properties. More particularly, they exert a therapeutically useful effect upon the central nervous system in warm-blooded animals, such as mice, especially analgesic and morphine-antagonistic activities, which were confirmed in the writhing test and the Haffner test. Pursuant to prevailing teachings, this agonistic/antagonistic activity spectrum points toward the absence of or a very low abuse potential.
On the technique in general: An intraperitoneal irritant provokes the stretching counted in writhing tests.

Series [2] deals with mouse. Nature of the series: Morphine-antagonism, mouse (Nalorphine = 1). It is filed as in vivo. To be noted: for Morphine-antagonism (Nalorphine = 1): mouse, relative potency.
Description: as §1

A short description of a further series: Toxicity, mouse, s.c. The class given is in vivo. To be noted: in vivo, sc; for LD50: mouse; for selectivity ratio: mouse s.c., LD50 / writhing ED50, read-out: Index LD50/ED50.
Series [3] concerns mouse. Briefly: Toxicity, mouse, s.c. The class given is in vivo.
In series [4] the test system is withdrawn morphine dependent rats. Briefly: Suppression of abstinence symptoms in withdrawn morphine dependent rats. It is filed as in vivo, rat.
Description: as §1

For series [5], the system named is withdrawn morphine dependent monkeys. Briefly: Suppression of abstinence symptoms in withdrawn morphine dependent monkeys. The class given is in vivo, monkey.

The term ED50 denotes the dose at which the effect has come halfway, by size or by number of responders. A low value points to greater potency. For orientation: LD50 means the dose at which mortality reaches 50%.

In turn, `Cc1ccoc1CN1CC[C@@]2(C)c3cc(O)ccc3C[C@@H]1[C@@H]2C` (relative stereo) [2-(3-methyl-furfuryl)-2'-hydroxy-5,9-α-dimethyl-6,7-benzomorphan] displayed an ED50 in the series with mouse [1] of 0.6 mg/kg. Also, in the series with mouse [2] (morphine antagonism, in words), the antagonistic component result is on record as “does not have the desired antagonistic component”. Further, the “Morphine-antagonism (Nalorphine = 1)” value in the series on mouse [2] was “inactive”. Also, in the series “Toxicity, mouse, s.c.”, the LD50 was found to be 305 mg/kg and the selectivity ratio worked out at 508.

`C[C@H]1[C@H]2Cc3ccc(O)cc3[C@]1(C)CCN2Cc1ccco1` (relative stereo) [2-furfuryl-2'-hydroxy-5,9-α-dimethyl-6,7-benzomorphan] displayed an ED50 with mouse [1] of 18 mg/kg. For the same compound, the “Morphine-antagonism (Nalorphine = 1)” value with mouse [2] was 1. Moreover, in “Toxicity, mouse, s.c.”, the LD50 amounted to 292 mg/kg and the selectivity ratio came to 16.

In the series on mouse [1], `C[C@H]1[C@H]2Cc3ccc(O)cc3[C@]1(C)CCN2Cc1ccno1` (relative stereo) [Example 1, 5,9-α-Dimethyl-2'-hydroxy-2-(5-isoxazolyl-methyl)-6,7-benzomorphan] displayed an ED50 of 0.6 mg/kg. In addition, in the series with mouse [1] (vs. 2-furfuryl compound), the “analgesic activity compared with 2-furfuryl-2'-hydroxy-5,9-α-dimethyl-6,7-benzomorphan” value was “significantly superior”. In addition, in the series on mouse [2], the “Morphine-antagonism (Nalorphine = 1)” value was determined as 0.1. Moreover, in the series “Toxicity, mouse, s.c.”, the median lethal dose (LD50) was found to be 1080 mg/kg and the selectivity ratio was found to be 1800. Also, the “therapeutic index compared with 2-furfuryl-2'-hydroxy-5,9-α-dimethyl-6,7-benzomorphan” value in the series on mouse [3] (vs. 2-furfuryl compound) is “significantly superior”. The “therapeutic index compared to pentazocine” value with mouse [3] (vs. pentazocine) was “far superior”. Further, the “suppression of abstinence symptoms” value in series [4] is given as “not capable of suppressing the abstinence symptoms”. Further, the “suppression of abstinence symptoms” value in series [5] is on record as “not capable of suppressing the abstinence symptoms”.

In turn, `CC(C)=CCN1CCC2(C)c3cc(O)ccc3CC1C2C` (stereo not shown) [Pentazocine] had a 50% effective dose (ED50) in the series on mouse [1] of 1.4 mg/kg. The “Morphine-antagonism (Nalorphine = 1)” value in the series with mouse [2] stood at 0.025. Besides, in “Toxicity, mouse, s.c.”, the LD50 was found to be 220 mg/kg and the selectivity ratio is 157.

The values are drawn from US4133888A, “Analgesic and morphine antagonistic 2'-hydroxy-2-(5-isoxazolyl-methyl)-6,7-benzomorphans and salts thereof” (Boehringer Ingelheim GmbH, priority 1977, dated 1979).
